In the assay the test system is hippocampal neurotransmission (PS amplitude, dentate granule cells, perforant path stimulation). As to the kind of experiment: Population spike (PS) recording in dentate gyrus of anesthetized mice (LTP-like potentiation of synaptic transmission). The class given is in vivo. Particulars: mouse. An excerpt: For population spike (PS) recording, the head of a mouse was fixed with ear bars under urethane anesthesia (an initial dose of 1.2 g/kg, i.p. followed by supplemental injections of 0.2-0.6 g/kg as needed), and a glass recording electrode was placed in the cell body layer of dentate granule cells (coordinates=2.0-2.5 mm posterior to bregma, 1.0-1.5 mm lateral to the midline, 1.5-2.0 mm ventral to the brain surface). Initial responses were obtained using cathodal stimulation (7.0-9.0 V, 0.1 Hz, 0.1 ms in duration) of the perforant path. After both stimulating and recording electrodes were properly positioned and population spike was obtained, the baseline was allowed to stabilize for 30 min prior to baseline recording. Body temperature was maintained at 37° C. Compound A was dissolved in 50% polyethylene glycol, diluted with water, and injected intraperitoneally (i.p.) at concentrations of 0.1 mg/kg, 1 mg/kg and 10 mg/kg, respectively. After the intraperitoneal administration of Compound A, the PS amplitude was measured every 5 minutes, and the proportion in percentage of the obtained value to the PS amplitude at the time of the start of i.p. administration of Compound A (% of basal PS amplitude) was calculated.

Turning to `CCCCCC1CC1CC1CC1CCCCCCCC(=O)O` (stereo not drawn) [Compound A, 8-(2-((2-pentylcyclopropan-1-yl)methyl)cyclopropyl)octanoic acid], for the setting “1 mg/kg i.p.”, the “time after injection at which potentiation of PS amplitude is still evident” value is reported as not below 120 min. Besides, the “PS amplitude, percent of basal PS amplitude” value (1 mg/kg i.p., urethane anesthesia) was “approximately 200%”. The “potentiation of PS amplitude” value (10 mg/kg i.p., compared with 1 mg/kg) is “much lesser potentiation”.

The record behind these values is patent US20050075393A1, “Carboxylic acid compound cyclopropane ring” (priority 2000, published 2005).
